According to patent US8940770B2, “Nitropyridinyl ethyleneimine compound, the pharmaceutical composition containing it, the preparation method and use thereof” (Beijing Yiling Bioengineering Co., Ltd, priority 2008, dated 2015):
Like-named read-outs stand apart in the source and are kept apart here.

Columns and labels:
[1] = tested on: A549 transfected with human cytochrome P450 reducease (CYPOR); experiment: cells; type: cell-based; conditions: for IC50: Homo sapiens
Description: (§1) Tumor cell strain: human non-small cell lung cancer cell line A549.
(§2) Reagent system: SRB, transfection kit
(§3) The cell strains/the cypor transfected cell strains were subject to normoxic and hypoxic cultivations respectively. Then, the cell vitality was analyzed by SRB assay and IC50 values were calculated. At last, the ratio of IC50 values in normoxia and in hypoxia (hypoxic cytotoxicity ratio, HCR) was calculated.
(§4) Both the human non-small cell lung cancer cell line A549 and the cypor transfected cell strains were cultivated in F12 cultivation medium containing 10% fetal bovine serum at 37° C. and in 5% CO2
(§5) The concentration gradient for the drug was set as 10^−3, 10^−4, 10^−5, 10^−6, and 10^−7 mol/L.
(§6) The crystallized powder of the active ingredient was dissolved in DMSO and formulated into a stock solution having a concentration which was 100 times of the maximal administrated concentration of the drug. The administrated concentrations of the drug could be prepared by directly diluting the stock solution with the corresponding serum-free cultivation medium.
(§7) the stock solution was stored at −80° C. in a refrigerator and the solutions of the drug to be administrated were prepared immediately before use.
(§8) The cell in the exponential growth phase was adjusted to a cell density of 1.0×10^5/ml and seeded into a 96-well plate at 100 μl per well. The drug was added under the normoxic and hypoxic condition respectively, according to the experimental grouping, and each of treatments using the drug lasted for 4 h.
(§9) After treatment using the drug was completed, the treated cells were normally cultivated under a normoxic condition for 4 days and then the cell survival rate was assayed by SRB. IC50 was calculated according to the equation of Lg IC50=Σ(Xi+Xi+1)(Pi+1−Pi)/2. Hypoxia cytotoxicity ratio (HCR) was obtained through dividing IC50 value in normoxia by IC50 value in hypoxia. The greater the HCR value is, the stronger the hypoxic selectivity of the drug will be.
(§10) All of the data were statistically analyzed using the software SPSS 11.5, the results were expressed as a mean±standard deviation ( X±SD), the inter-group difference was tested with the program One-Way ANOVA, P<0.05 means a statistically significant difference.

[2] = tested on: human non-small cell lung cancer cell line A549; experiment: SRB cell viability assay, wild-type A549, normoxic and hypoxic drug treatment; type: cell-based; conditions: for IC50: Homo sapiens, 4 h drug treatment, then 4 days normoxic culture, SRB, mean ± SD; for HCR O2/N2 (WT): wild-type A549, HCR = IC50 in normoxia/IC50 in hypoxia
Description: as §1, §2, §3, §4, §5, §6, §7, §8, §9, §10

[3] = A549, read-out: IC50 N2 (CYPOR)
[4] = A549, read-out: IC50 O2 (CYPOR)
[5] = wild-type A549, hypoxia (N2), read-out: IC50 N2 (WT)
[6] = wild-type A549, normoxia (O2), read-out: IC50 O2 (WT)

NC(=O)c1ccnc(N2CC2)c1[N+](=O)[O-] [Compound II, 2-(1-ethyleneimine)-4-carbamoyl-3-nitropyridine]
HCR O2/N2 (CYPOR) [1]: 52.5 ± 3.51 | IC50 [1, 3]: 2.7 ± 0.58 µM | IC50 [1, 4]: 142 ± 10.1 µM | melting point: 170 °C (dec.) | IC50 [2, 5]: 15.5 ± 2.67 µM | IC50 [2, 6]: 198 ± 5.04 µM | HCR O2/N2 (WT) [2]: 12.8 ± 2.87

NC(=O)c1cnc(N2CC2)c([N+](=O)[O-])c1 [Compound III, 2-(1-ethyleneimine)-5-carbamoyl-3-nitropyridine]
HCR O2/N2 (CYPOR) [1]: 62.0 ± 8.32 | IC50 [1, 3]: 2.3 ± 0.27 µM | IC50 [1, 4]: 143 ± 9.96 µM | melting point: 150 °C (dec.) | IC50 [2, 5]: 13.5 ± 3.2 µM | IC50 [2, 6]: 257 ± 4.83 µM | HCR O2/N2 (WT) [2]: 19.0 ± 3.91

NC(=O)c1cc([N+](=O)[O-])cnc1N1CC1 [Compound IV, 2-(1-ethyleneimine)-3-carbamoyl-5-nitropyridine]
HCR O2/N2 (CYPOR) [1]: 21.3 ± 4.56 | IC50 [1, 3]: 9.3 ± 3.2 µM | IC50 [1, 4]: 198 ± 24.9 µM | melting point: 160 °C (dec.) | IC50 [2, 5]: 56.6 ± 7.17 µM | IC50 [2, 6]: 317.2 ± 2.79 µM | HCR O2/N2 (WT) [2]: 5.6 ± 2.73

NC(=O)c1ccc([N+](=O)[O-])c(N2CC2)n1 [Compound V, 2-(1-ethyleneimine)-6-carbamoyl-3-nitropyridine]
HCR O2/N2 (CYPOR) [1]: 35.9 ± 9.15 | IC50 [1, 3]: 1.7 ± 0.38 µM | IC50 [1, 4]: 61 ± 7.11 µM | melting point: 170 °C (dec.) | IC50 [2, 5]: 9.4 ± 2.65 µM | IC50 [2, 6]: 79.3 ± 4.77 µM | HCR O2/N2 (WT) [2]: 8.4 ± 3.56

NC(=O)c1cc(N2CC2)ncc1[N+](=O)[O-] [Compound VI, 2-(1-ethyleneimine)-4-carbamoyl-5-nitropyridine]
HCR O2/N2 (CYPOR) [1]: 108.7 ± 8.88 | IC50 [1, 3]: 1.1 ± 0.16 µM | IC50 [1, 4]: 120 ± 6.48 µM | melting point: 170 °C (dec.) | IC50 [2, 5]: 5.5 ± 1.6 µM | IC50 [2, 6]: 137 ± 7.34 µM | HCR O2/N2 (WT) [2]: 25.0 ± 5.71
